Data: US11780839B2, “Compounds for treating Huntington's disease” (PTC THERAPEUTICS, INC., priority 2018, dated 2023)

Test system: Endogenous Huntingtin Protein
Experiment: Endogenous Huntingtin Protein Assay (ELISA-based Meso Scale Discovery electrochemiluminescence)
Type: cell-based
Conditions: MSD electrochemiluminescence, Table 1
In short: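 Sandwich MSD electrochemiluminescence immunoassay. Capture used MW1 (expanded polyglutamine) or MAB2166 antibody coated at 1 μg/mL overnight at 4 °C. Samples were bound overnight at 4 °C, then a rabbit monoclonal detection antibody and SULFO-TAG anti-rabbit, each at 0.25 μg/mL, were applied for 1 h at room temperature.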

| SMILES | IC50 [nM] |
| --- | --- |
| CN1CCC2(CC1)CN(c1ncc(-c3ccc(-n4cnc(F)c4)cc3O)nn1)C2 [Cpd 230, 5-(4-fluoro-1H-imidazol-1-yl)-2-[3-(7-methyl-2,7-diazaspiro[3.5]nonan-2-yl)-1,2,4-triazin-6-yl]phenol] | > 500 |
| Cc1cn(-c2ccc(-c3cnc(NC4CC(C)(C)NC(C)(C)C4)nn3)c(O)c2)cn1 [Cpd 274, 5-(4-methyl-1H-imidazol-1-yl)-2-{3-[(2,2,6,6-tetramethylpiperidin-4-yl)amino]-1,2,4-triazin-6-yl}phenol] | ≤ 100 |
| CNC1CCN(c2ncc(-c3ccc(-c4cc(SC)ncn4)cc3O)nn2)C1 (stereo not drawn) [Cpd 364, 2-{3-[3-(methylamino)pyrrolidin-l-yl]-1,2,4-triazin-6-yl}-5-[6-(methylsulfanyl)pyrimidin-4-yl]phenol] | 100 to 500 |
| CC1(C)C[C@H](Nc2ncc(-c3ccc(-c4ncco4)cc3O)nn2)[C@H](F)C(C)(C)N1 [Cpd 288, 2-(3-{[(3S,4S)-3-fluoro-2,2,6,6-tetramethylpiperidin-4-yl]amino}-1,2,4-triazin-6-yl)-5-(1,3-oxazol-2-yl)phenol] | ≤ 100 |
| CN(c1ncc(-c2ccc(-c3ncco3)cc2O)nn1)C1CC(C)(C)NC(C)(C)C1 [Cpd 7, 2-{3-[methyl(2,2,6,6-tetramethylpiperidin-4-yl)amino]-1,2,4-triazin-6-yl}-5-(1,3-oxazol-2-yl)phenol] | ≤ 100 |
| CC1(C)C[C@H](Nc2ncc(-c3ccc(-n4cnc(F)c4)cc3O)nn2)[C@H](F)C(C)(C)N1 [Cpd 240, 5-(4-fluoro-1H-imidazol-1-yl)-2-(3-{[(3S,4S)-3-fluoro-2,2,6,6-tetramethylpiperidin-4-yl]amino}-1,2,4-triazin-6-yl)phenol] | ≤ 100 |
| CN(c1ncc(-c2ccc(-c3cc(CO)ncn3)cc2O)nn1)C1CC(C)(C)NC(C)(C)C1 [Cpd 179, 5-[6-(hydroxymethyl)pyrimidin-4-yl]-2-{3-[methyl(2,2,6,6-tetramethylpiperidin-4-yl)amino]-1,2,4-triazin-6-yl}phenol] | ≤ 100 |
| CN(c1ncc(-c2ccc(-c3ccnc(O)c3)cc2O)nn1)C1CC(C)(C)NC(C)(C)C1 [Cpd 5, 4-(3-hydroxy-4-{3-[methyl(2,2,6,6-tetramethylpiperidin-4-yl)amino}-1,2,4-triazin-6-yl}phenyl)pyridin-2-ol] | ≤ 100 |
| OCCNC1CCN(c2ncc(-c3ccc(-c4cn[nH]c4)cc3O)nn2)C1 (centres unmarked) [Cpd 333, 2-(3-{3-[(2-hydroxyethyl)amino]pyrrolidin-1-yl}-1,2,4-triazin-6-yl)-5-(1H-pyrazol-4-yl)phenol] | ≤ 100 |
| CC(C)(C)NC1CCN(c2ncc(-c3ccc(-c4cn[nH]c4)c(F)c3O)nn2)C1 (centres unmarked) [Cpd 418, 6-{3-[3-(tert-butylamino)pyrrolidin-1-yl]-1,2,4-triazin-6-yl}-2-fluoro-3-(1H-pyrazol-4-yl)phenol] | ≤ 100 |
| CN1CCO[C@@H]2CN(c3ncc(-c4ccc(-c5cn[nH]c5)cc4O)nn3)C[C@@H]21 [Cpd 311, 2-{3-[(4aS,7aR)-4-methylhexahydropyrrolo[3,4-b][1,4]oxazin-6(2H)-yl]-1,2,4-triazin-6-yl}-5-(1H-pyrazol-4-yl)phenol] | 1000 to 3000 |
| CN(c1ncc(-c2ccc(-c3cnn(C4CC4)c3)cc2O)nn1)C1CC(C)(C)NC(C)(C)C1 [Cpd 101, 5-(1-cyclopropyl-1H-pyrazol-4-yl)-2-{3-[methyl(2,2,6,6-tetramethylpiperidin-4-yl)amino]-1,2,4-triazin-6-yl}phenol] | 100 to 500 |
| CN(c1ncc(-c2ccc(-c3cn[nH]c3)cc2O)nn1)C1CC(C)(C)NC(C)(C)C1 [Cpd 15, 2-{3-[methyl(2,2,6,6-tetramethylpiperidin-4-yl)amino]-1,2,4-triazin-6-yl}-5-(1H-pyrazol-4-yl)phenol] | ≤ 100 |
| CN(c1cnc(-c2ccc(-c3cn[nH]c3)cc2O)nn1)C1CC(C)(C)NC(C)(C)C1 [Cpd 24, 2-{6-[methyl(2,2,6,6-tetramethylpiperidin-4-yl)amino]-1,2,4-triazin-3-yl}-5-(1H-pyrazol-4-yl)phenol] | 100 to 500 |
| CNC1CCN(c2ncc(-c3ccc(-c4cnn(C)n4)cc3O)nn2)C1 (centres unmarked) [Cpd 295, 2-{3-[3-(methylamino)pyrrolidin-1-yl]-1,2,4-triazin-6-yl}-5-(2-methyl-2H-1,2,3-triazol-4-yl)phenol] | ≤ 100 |
| CN(c1ncc(-c2ccc(-c3n[nH]cc3F)cc2O)nn1)C1CC(C)(C)NC(C)(C)C1 [Cpd 156, 5-(4-fluoro-1H-pyrazol-3-yl)-2-{3-[methyl(2,2,6,6-tetramethylpiperidin-4-yl)amino]-1,2,4-triazin-6-yl}phenol] | ≤ 100 |
| CN(c1ncc(-c2ccc(-n3cc(O)cn3)cc2O)nn1)C1CC(C)(C)NC(C)(C)C1 [Cpd 90, 1-(3-hydroxy-4-{3-[methyl(2,2,6,6-tetramethylpiperidin-4-yl)amino]-1,2,4-triazin-6-yl}phenyl)-1H-pyrazol-4-ol] | ≤ 100 |
| Cn1ncc(-c2ccc(-c3cnc(N4CCC(NC(C)(C)C)C4)nn3)c(O)c2)n1 (centres unmarked) [Cpd 210, 2-{3-[3-(tert-butylamino)pyrrolidin-1-yl]-1,2,4-triazin-6-yl}-5-(2-methyl-2H-1,2,3-triazol-4-yl)phenol] | ≤ 100 |

| SMILES | IC50 [nM] |
| --- | --- |
| Cc1n[nH]cc1-c1ccc(-c2cnc(N(C)C3CC(C)(C)NC(C)(C)C3)nn2)c(O)c1 [Cpd 6, 5-(3-methyl-1H-pyrazol-4-yl)-2-{3-[methyl(2,2,6,6-tetramethylpiperidin-4-yl)amino]-1,2,4-triazin-6-yl}phenol] | ≤ 100 |
| Oc1cc(-c2cn[nH]c2)ccc1-c1cnc(N2CCC(NC3CCC(F)(F)C3)C2)nn1 (centres unmarked) [Cpd 409, 2-(3-{3-[(3,3-difluorocyclopentyl)amino]pyrrolidin-1-yl}-1,2,4-triazin-6-yl)-5-(1H-pyrazol-4-yl)phenol] | ≤ 100 |
| Oc1cc(-c2cn[nH]c2)ccc1-c1cnc(N2CCC3(CNCCO3)C2)nn1 (centres unmarked) [Cpd 353, 2-[3-(6-oxa-2,9-diazaspiro[4.5]decan-2-yl)-1,2,4-triazin-6-yl]-5-(1H-pyrazol-4-yl)phenol] | 1000 to 3000 |
| Cc1ccnc(-c2ccc(-c3cnc(N(C)C4CC(C)(C)NC(C)(C)C4)nn3)c(O)c2)n1 [Cpd 129, 5-(4-methylpyrimidin-2-yl)-2-{3-[methyl(2,2,6,6-tetramethylpiperidin-4-yl)amino]-1,2,4-triazin-6-yl}phenol] | 100 to 500 |
| Oc1cc(-c2cn[nH]c2)ccc1-c1cnc(N2CC[C@H](NC3CCC3)C2)nn1 [Cpd 400, 2-{3-[(3S)-3-(cyclobutylamino)pyrrolidin-1-yl]-1,2,4-triazin-6-yl}-5-(1H-pyrazol-4-yl)phenol] | ≤ 100 |
| CC1(NC2CCN(c3ncc(-c4ccc(-c5cn[nH]c5)cc4O)nn3)C2)CC1 (centres unmarked) [Cpd 340, 2-(3-{3-[(1-methylcyclopropyl)amino]pyrrolidin-1-yl}-1,2,4-triazin-6-yl)-5-(1H-pyrazol-4-yl)phenol] | ≤ 100 |
| CCC1CC(Oc2ncc(-c3ccc(-c4cn[nH]c4)cc3O)nn2)CC(CC)N1 [Cpd 120, 2-{3-[(2R,4s,6S)-2,6-diethylpiperidin-4-yl]oxy}-1,2,4-triazin-6-yl)-5-(1H-pyrazol-4-yl)phenol] | 100 to 500 |
| CN(c1ncc(-c2ccc(-c3cc4ncn(C)c4c(F)c3F)cc2O)nn1)C1CC(C)(C)NC(C)(C)C1 [Cpd 302, 5-(6,7-difluoro-1-methyl-1H-benzimidazol-5-yl)-2-{3-[methyl(2,2,6,6-tetramethylpiperidin-4-yl)amino]-1,2,4-triazin-6-yl}phenol] | > 500 |
| [2H]C([2H])([2H])n1cc(-c2ccc(-c3ncc(NC4CC(C)(C)NC(C)(C)C4)nn3)c(O)c2)cn1 [Cpd 424, 5-[1-(^2H3)methyl-1H-pyrazol-4-yl]-2-{6-[(2,2,6,6-tetramethylpiperidin-4-yl)amino]-1,2,4-triazin-3-yl}phenol] | ≤ 100 |
| CN1CCC2(CC1)CN(c1ncc(-c3ccc(-c4cnn(C)c4)cc3O)nn1)C2 [Cpd 226, 2-[3-(7-methyl-2,7-diazaspiro[3.5]nonan-2-yl)-1,2,4-triazin-6-yl]-5-(1-methyl-1H-pyrazol-4-yl)phenol] | ≤ 100 |
| COc1cc(-c2ccc(-c3cnc(N4CCC(NC(C)(C)C)C4)nn3)c(O)c2)ncn1 (centres unmarked) [Cpd 217, 2-{3-[3-(tert-butylamino)pyrrolidin-1-yl]-1,2,4-triazin-6-yl}-5-(6-methoxypyrimidin-4-yl)phenol] | ≤ 100 |
| CC(C)(C)N[C@H]1CCN(c2ncc(-c3ccc(-c4cn[nH]c4)cc3O)nn2)C1 [Cpd 355, 2-{3-[(3S)-3-(tert-butylamino)pyrrolidin-l-yl]-1,2,4-triazin-6-yl}-5-(1H-pyrazol-4-yl)phenol] | ≤ 100 |
| CN(c1ncc(-c2ccc(-n3nccn3)cc2O)nn1)C1CC(C)(C)NC(C)(C)C1 [Cpd 63, 2-{3-[methyl(2,2,6,6-tetramethylpiperidin-4-yl)amino]-1,2,4-triazin-6-yl}-5-(2H-1,2,3-triazol-2-yl)phenol] | ≤ 100 |
| CN1CC[C@H]2CN(c3ncc(-c4ccc(-c5c[nH]nc5F)cc4O)nn3)CC[C@H]21 [Cpd 153, 5-(3-fluoro-1H-pyrazol-4-yl)-2-{3-[(3aS,7aR)-1-methyloctahydro-5H-pyrrolo[3,2-c]pyridin-5-yl]-1,2,4-triazin-6-yl}phenol] | 100 to 500 |
| CN(c1cnc(-c2ccc(-c3cnccn3)cc2O)nn1)C1CC(C)(C)NC(C)(C)C1 [Cpd 412, 2-{6-[methyl(2,2,6,6-tetramethylpiperidin-4-yl)amino]-1,2,4-triazin-3-yl}-5-(pyrazin-2-yl)phenol] | ≤ 100 |
| Oc1cc(-c2cn[nH]c2)ccc1-c1cnc(N2CCC3(CCNC3)C2)nn1 (centres unmarked) [Cpd 354, 2-[3-(2,7-diazaspirol{4.4}nonan-2-yl)-1,2,4-triazin-6-yl]-5-(1H-pyrazol-4-yl)phenol] | ≤ 100 |
| CC(C)(CF)NC1CCN(c2ncc(-c3ccc(-c4cn[nH]c4)cc3O)nn2)C1 (centres unmarked) [Cpd 316, 2-(3-{3-[(1-fluoro-2-methylpropan-2-yl)amino]pyrrolidin-1-yl}-1,2,4-triazin-6-yl)-5-(1H-pyrazol-4-yl)phenol] | ≤ 100 |
